Assay results: patent US10927106B2, “Benzothiazole derivatives as DYRK1 inhibitors” (PHARMASUM THERAPEUTICS AS, priority 2017, dated 2021)

Experiments:
Experiment in all cases: Kinase profiling, 33P ATP filter binding assay
Assay type in all cases: biochemical
Settings in all cases: 1 micromolar inhibitor concentration, read-out: percentage inhibition
MKK1 = MKK1 (Homo sapiens (Human), UniProt Q02750)
MKK2 = MKK2 (Homo sapiens (Human), UniProt P36507)
MKK6 = MKK6 (Homo sapiens (Human), UniProt P52564)
ERK2 = ERK2 (Homo sapiens (Human), UniProt P28482)
Sequence of ERK2 (P28482 whole entry, species assumed): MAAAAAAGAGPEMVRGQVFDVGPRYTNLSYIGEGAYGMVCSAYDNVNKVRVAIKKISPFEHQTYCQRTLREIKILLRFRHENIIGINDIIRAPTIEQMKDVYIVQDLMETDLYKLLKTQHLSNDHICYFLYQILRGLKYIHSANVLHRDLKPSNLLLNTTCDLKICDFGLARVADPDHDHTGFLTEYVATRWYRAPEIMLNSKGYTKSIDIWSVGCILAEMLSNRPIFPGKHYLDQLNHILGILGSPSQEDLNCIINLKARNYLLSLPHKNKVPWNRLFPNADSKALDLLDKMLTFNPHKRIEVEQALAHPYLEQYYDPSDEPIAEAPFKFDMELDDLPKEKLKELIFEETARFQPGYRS

p38g MAPK = p38g MAPK (Homo sapiens (Human), UniProt P53778)
Sequence of p38g MAPK (P53778 whole entry): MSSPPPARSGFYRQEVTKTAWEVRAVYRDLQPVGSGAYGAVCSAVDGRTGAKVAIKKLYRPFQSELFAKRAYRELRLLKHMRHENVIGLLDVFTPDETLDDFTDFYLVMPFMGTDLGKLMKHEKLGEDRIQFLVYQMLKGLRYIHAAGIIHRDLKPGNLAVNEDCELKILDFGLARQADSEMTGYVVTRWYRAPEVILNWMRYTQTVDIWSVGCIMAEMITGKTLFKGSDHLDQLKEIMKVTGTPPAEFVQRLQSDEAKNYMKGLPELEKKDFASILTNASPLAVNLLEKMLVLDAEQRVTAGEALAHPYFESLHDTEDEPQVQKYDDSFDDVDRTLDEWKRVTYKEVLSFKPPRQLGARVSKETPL

RSK2 = RSK2 (Homo sapiens (Human), UniProt P51812)
SGK1 = SGK1 (Homo sapiens (Human), UniProt O00141)
Sequence of SGK1 (O00141 whole entry, species assumed): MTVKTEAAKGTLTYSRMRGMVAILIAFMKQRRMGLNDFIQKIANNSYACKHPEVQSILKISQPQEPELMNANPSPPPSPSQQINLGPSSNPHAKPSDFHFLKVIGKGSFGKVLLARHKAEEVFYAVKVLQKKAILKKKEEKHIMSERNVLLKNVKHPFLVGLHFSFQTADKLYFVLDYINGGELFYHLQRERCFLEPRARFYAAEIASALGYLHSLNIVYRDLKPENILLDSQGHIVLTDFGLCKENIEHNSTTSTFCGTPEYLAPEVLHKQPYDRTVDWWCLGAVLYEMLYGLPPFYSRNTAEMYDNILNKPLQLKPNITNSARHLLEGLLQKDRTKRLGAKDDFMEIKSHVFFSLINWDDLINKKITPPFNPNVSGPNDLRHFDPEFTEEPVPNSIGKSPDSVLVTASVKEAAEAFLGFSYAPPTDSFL

PKCa = PKCa (Homo sapiens (Human), UniProt P17252)
PKD1 = PKD1 (Homo sapiens (Human), UniProt Q15139)
STK33 = STK33 (Homo sapiens (Human), UniProt Q9BYT3)
MAPKAP-K3 = MAPKAP-K3 (Homo sapiens (Human), UniProt Q16644)
PRAK = PRAK (Homo sapiens (Human), UniProt Q8IW41)
SmMLCK = SmMLCK (Homo sapiens (Human), UniProt Q15746)
Procedure: The determination of protein kinase inhibition was performed at the International Centre for Kinase Profiling at the University of Dundee, UK. […] The ATP concentrations were at or below the calculated Km for ATP for each particular kinase.

CDK2-Cyclin A = CDK2-Cyclin A (Homo sapiens (Human), UniProt P24941)
Aurora B = Aurora B (Homo sapiens (Human), UniProt Q96GD4)
Sequence of Aurora B (Q96GD4 whole entry): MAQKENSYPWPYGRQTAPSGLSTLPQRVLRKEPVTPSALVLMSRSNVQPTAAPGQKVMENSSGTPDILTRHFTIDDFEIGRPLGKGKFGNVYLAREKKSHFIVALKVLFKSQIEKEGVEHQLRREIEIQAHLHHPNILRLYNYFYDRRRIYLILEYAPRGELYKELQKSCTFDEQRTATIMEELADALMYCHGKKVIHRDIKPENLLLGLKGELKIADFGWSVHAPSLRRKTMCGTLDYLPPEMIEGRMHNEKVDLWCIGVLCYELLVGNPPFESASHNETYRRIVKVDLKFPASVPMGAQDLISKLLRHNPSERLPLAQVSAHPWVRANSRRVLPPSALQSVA

MARK1 = MARK1 (Homo sapiens (Human), UniProt Q9P0L2)
MARK2 = MARK2 (Homo sapiens (Human), UniProt Q7KZI7)
Sequence of MARK2 (Q7KZI7 whole entry, species assumed): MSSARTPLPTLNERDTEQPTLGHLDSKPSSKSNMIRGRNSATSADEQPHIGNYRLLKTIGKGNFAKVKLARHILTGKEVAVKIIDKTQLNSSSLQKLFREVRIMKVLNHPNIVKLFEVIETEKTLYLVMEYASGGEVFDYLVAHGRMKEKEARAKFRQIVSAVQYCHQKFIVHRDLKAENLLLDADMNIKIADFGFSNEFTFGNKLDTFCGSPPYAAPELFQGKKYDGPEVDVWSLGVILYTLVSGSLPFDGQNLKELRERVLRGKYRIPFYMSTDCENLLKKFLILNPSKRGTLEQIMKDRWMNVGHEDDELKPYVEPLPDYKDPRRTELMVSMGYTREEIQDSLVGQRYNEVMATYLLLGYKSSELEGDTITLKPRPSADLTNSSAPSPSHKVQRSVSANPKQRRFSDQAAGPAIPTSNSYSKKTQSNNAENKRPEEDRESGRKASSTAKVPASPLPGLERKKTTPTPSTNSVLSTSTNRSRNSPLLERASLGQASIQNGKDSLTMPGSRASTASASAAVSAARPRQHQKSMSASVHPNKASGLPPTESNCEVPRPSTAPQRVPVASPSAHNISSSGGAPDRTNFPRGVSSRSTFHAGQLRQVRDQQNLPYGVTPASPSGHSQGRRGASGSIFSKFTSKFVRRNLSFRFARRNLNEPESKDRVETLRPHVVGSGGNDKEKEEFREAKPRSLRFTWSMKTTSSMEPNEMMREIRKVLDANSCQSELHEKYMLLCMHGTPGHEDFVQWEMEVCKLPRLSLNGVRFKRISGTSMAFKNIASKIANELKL

MARK3 = MARK3 (Homo sapiens (Human), UniProt P27448)
MARK4 = MARK4 (Homo sapiens (Human), UniProt Q96L34)
MELK = MELK (Homo sapiens (Human), UniProt Q14680)
CK1y2 = CK1y2 (Homo sapiens (Human), UniProt P78368)
TTBK1 = TTBK1 (Homo sapiens (Human), UniProt Q5TCY1)
NEK2a = NEK2a (Homo sapiens (Human), UniProt P51955)
IKKb = IKKb (Homo sapiens (Human), UniProt O14920)
Sequence of IKKb (O14920 whole entry, species assumed): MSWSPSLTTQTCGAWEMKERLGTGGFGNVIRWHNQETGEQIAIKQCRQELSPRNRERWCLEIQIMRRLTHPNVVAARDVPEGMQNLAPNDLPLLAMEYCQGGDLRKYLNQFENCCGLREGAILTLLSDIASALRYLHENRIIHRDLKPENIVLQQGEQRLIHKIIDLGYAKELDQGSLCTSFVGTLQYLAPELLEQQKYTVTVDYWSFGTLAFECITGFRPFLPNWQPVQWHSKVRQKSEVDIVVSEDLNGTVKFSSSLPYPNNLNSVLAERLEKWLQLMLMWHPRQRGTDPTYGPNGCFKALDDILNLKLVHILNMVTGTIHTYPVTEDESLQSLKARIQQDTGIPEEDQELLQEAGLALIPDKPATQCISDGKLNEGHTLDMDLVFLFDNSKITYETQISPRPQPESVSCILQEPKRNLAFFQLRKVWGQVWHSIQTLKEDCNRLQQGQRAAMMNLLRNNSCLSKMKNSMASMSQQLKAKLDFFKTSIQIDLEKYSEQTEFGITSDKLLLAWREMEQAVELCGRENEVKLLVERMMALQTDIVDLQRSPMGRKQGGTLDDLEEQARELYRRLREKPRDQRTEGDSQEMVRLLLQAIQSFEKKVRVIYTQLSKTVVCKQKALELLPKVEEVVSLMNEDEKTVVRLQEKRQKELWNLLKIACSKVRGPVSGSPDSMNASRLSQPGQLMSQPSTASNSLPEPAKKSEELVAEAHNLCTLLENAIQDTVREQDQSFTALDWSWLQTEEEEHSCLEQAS

PIM3 = PIM3 (Homo sapiens (Human), UniProt Q86V86)
SRPK1 = SRPK1 (Homo sapiens (Human), UniProt Q96SB4)
HIPK2 = HIPK2 (Homo sapiens (Human), UniProt Q9H2X6)
PAK4 = PAK4 (Homo sapiens (Human), UniProt O96013)
MST2 = MST2 (Homo sapiens (Human), UniProt Q13188)
Sequence of MST2 (Q13188 whole entry, species assumed): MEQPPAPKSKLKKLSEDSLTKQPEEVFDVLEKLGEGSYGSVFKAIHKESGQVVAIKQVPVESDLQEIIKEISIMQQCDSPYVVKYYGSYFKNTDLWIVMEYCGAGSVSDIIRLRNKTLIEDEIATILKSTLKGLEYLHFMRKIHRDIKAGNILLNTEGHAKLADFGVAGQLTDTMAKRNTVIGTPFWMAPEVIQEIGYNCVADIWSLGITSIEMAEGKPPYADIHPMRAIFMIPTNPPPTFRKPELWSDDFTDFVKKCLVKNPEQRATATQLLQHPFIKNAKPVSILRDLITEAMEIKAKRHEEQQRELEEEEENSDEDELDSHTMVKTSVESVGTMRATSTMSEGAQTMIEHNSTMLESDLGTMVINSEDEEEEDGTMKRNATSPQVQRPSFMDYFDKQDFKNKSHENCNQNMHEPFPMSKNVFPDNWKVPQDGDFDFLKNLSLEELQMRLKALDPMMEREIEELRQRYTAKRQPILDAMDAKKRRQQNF

MAP4K3 = MAP4K3 (Homo sapiens (Human), UniProt Q8IVH8)
IRAK1 = IRAK1 (Homo sapiens (Human), UniProt P51617)
IRAK4 = IRAK4 (Homo sapiens (Human), UniProt Q9NWZ3)
RIPK2 = RIPK2 (Homo sapiens (Human), UniProt O43353)
Sequence of RIPK2 (O43353 whole entry, species assumed): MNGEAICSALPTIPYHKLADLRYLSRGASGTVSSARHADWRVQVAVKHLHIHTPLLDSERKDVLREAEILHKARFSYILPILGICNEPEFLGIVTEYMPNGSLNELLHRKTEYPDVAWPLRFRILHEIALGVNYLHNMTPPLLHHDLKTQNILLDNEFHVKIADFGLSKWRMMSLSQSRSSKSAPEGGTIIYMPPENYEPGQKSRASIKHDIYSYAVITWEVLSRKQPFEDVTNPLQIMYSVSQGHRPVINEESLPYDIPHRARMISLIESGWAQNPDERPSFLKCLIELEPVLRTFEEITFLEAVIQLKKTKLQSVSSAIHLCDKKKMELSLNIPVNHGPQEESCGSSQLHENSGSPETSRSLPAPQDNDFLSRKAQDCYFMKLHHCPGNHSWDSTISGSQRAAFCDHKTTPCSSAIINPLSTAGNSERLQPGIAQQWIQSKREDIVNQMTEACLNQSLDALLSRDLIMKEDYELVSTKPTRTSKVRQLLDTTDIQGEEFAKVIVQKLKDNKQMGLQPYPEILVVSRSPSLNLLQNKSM

MPSK1 = MPSK1 (Homo sapiens (Human), UniProt O75716)
ULK2 = ULK2 (Homo sapiens (Human), UniProt Q8IYT8)
TGFBR1 = TGFBR1 (Homo sapiens (Human), UniProt P36897)
Sequence of TGFBR1 (P36897 34-503, species assumed): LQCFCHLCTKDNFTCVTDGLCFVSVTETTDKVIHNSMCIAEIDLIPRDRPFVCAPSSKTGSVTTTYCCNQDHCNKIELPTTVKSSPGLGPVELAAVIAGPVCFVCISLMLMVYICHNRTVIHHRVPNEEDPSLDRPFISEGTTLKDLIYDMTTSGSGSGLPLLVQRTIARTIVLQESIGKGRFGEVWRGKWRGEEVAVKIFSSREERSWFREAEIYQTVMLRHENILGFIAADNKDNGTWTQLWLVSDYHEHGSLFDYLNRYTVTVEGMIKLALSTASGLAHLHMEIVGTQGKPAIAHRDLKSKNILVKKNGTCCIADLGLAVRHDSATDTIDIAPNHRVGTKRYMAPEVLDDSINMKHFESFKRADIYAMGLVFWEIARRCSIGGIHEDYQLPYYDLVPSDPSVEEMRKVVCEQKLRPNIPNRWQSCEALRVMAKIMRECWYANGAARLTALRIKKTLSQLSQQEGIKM

CSK = CSK (Homo sapiens (Human), UniProt P41240)
YES1 = YES1 (Homo sapiens (Human), UniProt P07947)
JAK2 = JAK2 (Homo sapiens (Human), UniProt O60674)
EPH-B1 = EPH-B1 (Homo sapiens (Human), UniProt P54762)
TrkA = TrkA (Homo sapiens (Human), UniProt P04629)
DDR2 = DDR2 (Homo sapiens (Human), UniProt Q16832)

Sequence of MKK1 (Q02750 whole entry, species assumed): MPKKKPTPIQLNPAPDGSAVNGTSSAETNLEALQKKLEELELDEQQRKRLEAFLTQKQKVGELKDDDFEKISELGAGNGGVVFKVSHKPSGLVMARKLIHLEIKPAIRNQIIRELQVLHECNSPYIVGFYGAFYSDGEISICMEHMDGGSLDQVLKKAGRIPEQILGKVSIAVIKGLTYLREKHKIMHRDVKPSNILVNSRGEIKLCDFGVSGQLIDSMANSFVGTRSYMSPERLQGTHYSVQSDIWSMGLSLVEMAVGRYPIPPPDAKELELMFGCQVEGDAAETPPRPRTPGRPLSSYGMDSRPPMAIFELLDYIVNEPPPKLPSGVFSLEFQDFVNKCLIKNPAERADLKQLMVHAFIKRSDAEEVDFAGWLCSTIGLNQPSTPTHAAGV

## CS(=O)(=O)Nc1cncc(-c2nc3cc(O)ccc3s2)c1 [4-99, N-(5-(5-Hydroxybenzo[d]thiazol-2-yl)pyridin-3-yl)methanesulfonamide]
MKK1
  inhibition at 1 µM: 0%
MKK2
  inhibition at 1 µM: 0%
MKK6
  inhibition at 1 µM: 0%
ERK2
  inhibition at 1 µM: 0%
p38g MAPK
  inhibition at 1 µM: 0%
RSK2
  inhibition at 1 µM: 0%
SGK1
  inhibition at 1 µM: 7%
PKCa
  inhibition at 1 µM: 0%
PKD1
  inhibition at 1 µM: 0%
STK33
  inhibition at 1 µM: 0%
MAPKAP-K3
  inhibition at 1 µM: 0%
PRAK
  inhibition at 1 µM: 0%
SmMLCK
  inhibition at 1 µM: 0%
CDK2-Cyclin A
  inhibition at 1 µM: 6%
Aurora B
  inhibition at 1 µM: 0%
MARK1
  inhibition at 1 µM: 0%
MARK2
  inhibition at 1 µM: 0%
MARK3
  inhibition at 1 µM: 0%
MARK4
  inhibition at 1 µM: 0%
MELK
  inhibition at 1 µM: 0%
CK1y2
  inhibition at 1 µM: 0%
TTBK1
  inhibition at 1 µM: 0%
NEK2a
  inhibition at 1 µM: 0%
IKKb
  inhibition at 1 µM: 0%
PIM3
  inhibition at 1 µM: 0%
SRPK1
  inhibition at 1 µM: 0%
HIPK2
  inhibition at 1 µM: 0%
PAK4
  inhibition at 1 µM: 0%
MST2
  inhibition at 1 µM: 0%
MAP4K3
  inhibition at 1 µM: 0%
IRAK1
  inhibition at 1 µM: 0%
IRAK4
  inhibition at 1 µM: 8%
RIPK2
  inhibition at 1 µM: 24%
MPSK1
  inhibition at 1 µM: 11%
ULK2
  inhibition at 1 µM: 0%
TGFBR1
  inhibition at 1 µM: 0%
CSK
  inhibition at 1 µM: 0%
YES1
  inhibition at 1 µM: 0%
JAK2
  inhibition at 1 µM: 0%
EPH-B1
  inhibition at 1 µM: 0%
TrkA
  inhibition at 1 µM: 0%
DDR2
  inhibition at 1 µM: 0%

## COc1ccc2sc(-c3cncc(NC(C)=O)c3)nc2c1 [4-93, N-(5-(5-Methoxybenzo[d]thiazol-2-yl)pyridin-3-yl)acetamide]
MKK1
  inhibition at 1 µM: 0%
MKK2
  inhibition at 1 µM: 25%
MKK6
  inhibition at 1 µM: 0%
ERK2
  inhibition at 1 µM: 0%
p38g MAPK
  inhibition at 1 µM: 0%
RSK2
  inhibition at 1 µM: 0%
SGK1
  inhibition at 1 µM: 0%
PKCa
  inhibition at 1 µM: 0%
PKD1
  inhibition at 1 µM: 0%
STK33
  inhibition at 1 µM: 0%
MAPKAP-K3
  inhibition at 1 µM: 0%
PRAK
  inhibition at 1 µM: 0%
SmMLCK
  inhibition at 1 µM: 0%
CDK2-Cyclin A
  inhibition at 1 µM: 0%
Aurora B
  inhibition at 1 µM: 0%
MARK1
  inhibition at 1 µM: 0%
MARK2
  inhibition at 1 µM: 0%
MARK3
  inhibition at 1 µM: 1%
MARK4
  inhibition at 1 µM: 0%
MELK
  inhibition at 1 µM: 1%
CK1y2
  inhibition at 1 µM: 0%
TTBK1
  inhibition at 1 µM: 0%
NEK2a
  inhibition at 1 µM: 0%
IKKb
  inhibition at 1 µM: 0%
PIM3
  inhibition at 1 µM: 7%
SRPK1
  inhibition at 1 µM: 0%
HIPK2
  inhibition at 1 µM: 10%
PAK4
  inhibition at 1 µM: 0%
MST2
  inhibition at 1 µM: 0%
MAP4K3
  inhibition at 1 µM: 0%
IRAK1
  inhibition at 1 µM: 0%
IRAK4
  inhibition at 1 µM: 12%
RIPK2
  inhibition at 1 µM: 0%
MPSK1
  inhibition at 1 µM: 0%
ULK2
  inhibition at 1 µM: 0%
TGFBR1
  inhibition at 1 µM: 0%
CSK
  inhibition at 1 µM: 0%
YES1
  inhibition at 1 µM: 0%
JAK2
  inhibition at 1 µM: 0%
EPH-B1
  inhibition at 1 µM: 0%
TrkA
  inhibition at 1 µM: 0%
DDR2
  inhibition at 1 µM: 2%
